Reference: patent US7927785B2, “Methods for in vitro expansion of hematopoietic stem cells” (The Board of Trustees of the University of Illinois, priority 2002, dated 2011)

Columns and labels:
Assay type in all cases: cell-based
[1] = test system: adult human bone marrow CD34+ cells; assay: Ex vivo expansion culture: cell counts and CD34+CD90+ cell numbers
Method: (§1) To promote cell division of isolated CD34^+ cells, a stroma-free suspension culture was established as previously described (Bazil et al., 1995). Tissue culture dishes (35 mm; Costar, Corning, N.Y.) were seeded with 1×10^5 CD34^+cells/well in 2.5 mL Iscove modified Dulbecco medium (IMDM) (Biowhittaker, Walkersville, Md.) containing 30% FBS and a cocktail of cytokines specifically thought to promote exit from G0/G1 in primitive HSC populations which consisted of 100 ng/mL recombinant stem cell factor (SCF), 100 ng/mL FLT-3 ligand, 100 ng/mL thrombopoetin (TPO) and 50 ng/mL of interleukin (IL)-3, (all from Amgen Inc., Thousand Oaks, Calif.).
(§2) Cells were maintained in the media and incubated at 37° C. in a 100%-humidified atmosphere containing 5% CO2 for 48 hours. After intial 16 hours of incubation cells were exposed to the demethylating agent, 5-aza2′deoxycitidine (5azaD) (Sigma Chemicals, St. Louis, Mo.) at a concentration of 10^−6M. After 48 hours, cells were washed by centrifugation and then equally distributed to new tissue culture dishes in 2.5 mL IMDM supplemented with 30% FBS containing cytokines known to promote terminal differentiation of HSC into multiple hematopoietic lineages. The cocktail of cytokines contained 100 ng/mL of SCF, 50 ng/ml of granulocyte colony-stimulating factor (G-CSF), 50 ng/mL of IL-3, 50 ng/ml of IL-6 and 5 units (U)/mL of recombinant erythropoietin (EPO) (Amgen Inc., Thousand Oaks, Calif.). Cells at this time point were exposed to Trichostatin (TSA) (Sigma Chemical., St. Louis, Mo.) at 5 ng/mL and the culture was continued for an additional 7 days. At the end of the culture period cells were counted for viability by the trypan blue exclusion method using an inverted microscope. 5-fluorouracil (5-FU) (Sigma Chemical., St. Louis, Mo.) was used at a concentration of 200 μg/ml and added at the 16 hour time point instead of 5azaD and the cultures carried on as described above with no addition of TSA.
(§3) The phenotypic characteristics of the CD34^+ cells were analyzed using FACS. After 9 days of culture, expanded marrow CD34^+ cells were analyzed for primitive HSC phenotype, previously defined, by using flow activated-cell sorter (FACS) (Becton Dickinson (BD) FACS Calibur, San Jose, Calif.). Cells were stained with anti-human CD34^+ moAb conjugated either to fluorescein isothiocyanate (FITC) or phycoerythrin (PE) and another moAb including anti-CD38, anti-CD117, anti-CD90. To determine the lineage positive cells a panel of moab all conjugated to FITC (anti-CD2, anti-CD14, anti-CD15, anti-CD19 and anti-GlyA) (all antibodies were purchased from BD) were utilized. All anaylsis were paired with the corresponding matched isotype control of the specific moAb utilized. All staining and washes were performed in DPBS (Biowhittaker, Walkersville Md.) and 0.5% BSA (Sigma, Chemicals Co., St. Louis, Mo.). Immediately prior to FACS anaylsis, […] propidium iodide (PI) (Sigma, Chemicals Co., St. Louis, Mo.) was added for the exclusion of nonviable cells for phenotypic analysis. Using Cell-Quest software (BD), at least 10,000 live cells were acquired for each analysis.

[2] = test system: adult human bone marrow CD34+ cells; assay: Colony-forming cell (CFC) assay in methylcellulose
Method: Colony-forming cells (CFC) were assayed under standard conditions in semisolid media as previously described (Brandt et al., Blood 94:106-113, 1999). Briefly 1×10^3 primary CD34^+ cells or unfractionated cultured cells exposed to different conditions used following 9 days of culture were plated in duplicate cultures containing 1 ml IMDM with 1.1% methylcellulose, 30% FBS, 5×10^−5 M 2-mercaptoethanol (Methocult, Stem Cell Technologies, Vancouver, BC, Canada), and a cocktail of growth factors including 100 ng/ml of SCF, 5 U/mL of EPO, 50 ng/mL of IL-3, 50 ng/mL of IL-6 and 50 ng/mL of G-CSF (Amgen Inc., Thousand Oaks, Calif.). The cells were plated into 35 mm tissue-culture dishes (Costar), and after 14 days of incubation at 37° C. in a 100%-humidified atmosphere containing 5% CO2, the colonies were scored with an inverted microscope following standard criteria (Breems et al., Leukemia, 8:1095-1104, 1994).

[3] = test system: adult human bone marrow CD34+ cells; assay: Colony-forming cell (CFC) assay in methylcellulose; details: after 5 days
[4] = test system: adult human bone marrow CD34+ cells; assay: Phenotypic analysis (FACS) of marrow CD34+ cells after ex vivo culture
Method: as §1, §2, §3

[5] = 9 days of culture, single agent
[6] = 9 days with cytokines, mean of 3 ± SEM
[7] = colonies/plate, cells after 9 days with cytokines, mean of 2 ± SEM
[8] = 9 days of culture, single agent, % of total cells

O=c1[nH]cc(F)c(=O)[nH]1 [5-FU, 5-fluorouracil]
% CD34+ of all cells [1, 5]: 26%
% CD34+ thy-1+ cells [1, 5]: 1%
Absolute CD34+ thy-1+ cells ×10^5 [1, 5]: 0.0002 ×10^5
Absolute CD34 counts ×10^5 [1, 5]: 0.0065 ×10^5
Fold changes from the original cells ([1]; 9 days of culture, single agent, CD34+CD90+ cells): 0.001 fold
Total counts ×10^5 ([1]; 9 days of culture, single agent, start 1×10^5 CD34+ cells/well): 0.025 ×10^5
Absolute CD34+ Number (×10^4) [1, 6]: 0.1 ± 0.0 ×10^4
Absolute CD34+CD90+ Numbers (×10^4) [1, 6]: 0.0 ×10^4
Total Mononuclear Cell Number (×10^4) [1, 6]: 0.3 ± 0.0 ×10^4
CD34+CD90+ cells observed ([1]; by day 9): no CD34^+CD90^+ cells were observed
Fold Expansion of CD34+CD90+ ([1]; compared to the primary cell numbers, mean of 3 ± SEM): 0.0 fold
absolute number of CD34+CD90+ cells in the culture ([1]; day 9, from 22,000 at start): 700
assayable hematopoietic progenitor cells ([2]; 9 days with cytokines, compared with primary cells): no assayable hematopoietic progenitor cells
Total Number Colonies/plate ([2]; cells after 9 days with cytokines, mean of 2 ± SEM): 0
BFU-E [2, 7]: 0
CFU-GM [2, 7]: 0
CFU-Mix [2, 7]: 0
Plating Efficiencies ([2]; total number of hematopoietic colonies/total cells plated × 100): 0
assayable hematopoetic progenitor cells [3]: no assayable hematopoetic progenitor cells
CD34+ CD90+ % [4, 8]: 1.2%
CD34+ CKit lo % [4, 8]: 4%
CD34+ Lin− % [4, 8]: 27%
CD34+CD38− % [4, 8]: 27%
Total CD34+ % [4, 8]: 27%
% of CD34+ cells that were CD90+ ([4]; day 9): 10%
% of cells that were CD34+ ([4]; day 9): 20%
